Measured values published in article PMC8286840, “Identifying SARS-CoV-2 antiviral compounds by screening for small molecule inhibitors of Nsp3 papain-like protease” (Biochemical Journal, 2021).
Counter-ions that a name gives are not always drawn. Like-named read-outs stand apart in the source and are kept apart here.

Assays:
[1] = target: T1, SARS-CoV-2 PLpro (nsp3 1564–1878) (Severe acute respiratory syndrome coronavirus 2, UniProt P0DTD1); experiment: biochemical; parameters: FRET-quenched peptide (Pro3) cleavage by PLpro, 10 min pre-incubation, slope over 20 min, normalised to no-compound control; conditions: low concentration screen, read-out: % of control remaining
[2] = target: T1, SARS-CoV-2 PLpro (nsp3 1564–1878); experiment: biochemical; parameters: FRET-quenched peptide (Pro3) cleavage by PLpro, 10 min pre-incubation, slope over 20 min, normalised to no-compound control; conditions: high concentration screen, read-out: % of control remaining

`Cc1cc(NC(=O)Nc2ccc(N(C)C)cc2)c2cc(F)cc(F)c2n1` [SB-408124 (Hydrochloride)] was tested, and the remaining activity at 1.25 µM ([1]; Well no.=6939) was 99.4% and the remaining activity at 3.75 µM ([2]; Well no.=6939) was 98.8%.

In the case of `Cc1cc(NC(=O)Nc2ccc(N(C)C)cc2)c2cc(F)cc(F)c2n1` [SB-408124], the remaining activity at 1.25 µM ([1]; Well no.=4955) is reported as 90.2%, the remaining activity at 1.25 µM ([1]; Well no.=8481) is reported as 104% and the remaining activity at 3.75 µM ([2]; Well no.=4955) is reported as 94.9%. The remaining activity at 3.75 µM ([2]; Well no.=8481) was 102%.

In the case of `Cc1cccc(-c2[nH]c(C(C)(C)C)nc2-c2ccc3c(c2)OCO3)n1` [SB-505124], the remaining activity at 1.25 µM ([1]; Well no.=4814) is reported as 101% and the remaining activity at 3.75 µM ([2]; Well no.=4814) is reported as 95.6%.

`Cc1nc(C(=O)N2CCC[C@H]2Cc2nnc(-c3ccccc3)o2)c(-c2ccccc2F)s1` [SB-674042] was tested, and the remaining activity at 1.25 µM ([1]; Well no.=7083) was 102% and the remaining activity at 3.75 µM ([2]; Well no.=7083) was 98.9%.

`O=S(=O)(c1ccccc1)c1cnc2c(N3CCNCC3)cccc2c1` [SB-742457] gave a remaining activity at 1.25 µM ([1]; Well no.=4839) of 98.1%, a remaining activity at 1.25 µM ([1]; Well no.=7183) of 94.6% and a remaining activity at 3.75 µM ([2]; Well no.=4839) of 104%. For the same molecule, the remaining activity at 3.75 µM ([2]; Well no.=7183) was 91.3%.

Molecule `Cc1cc(/C(O)=C2\C(=O)C(=O)N(CCCN3CCOCC3)C2c2ccncc2)ccc1OCc1ccccc1` (stereo not drawn) [SBC-115076] has a remaining activity at 1.25 µM ([1]; Well no.=7844) of 101% and a remaining activity at 3.75 µM ([2]; Well no.=7844) of 95.8%.

Molecule `CNC(=O)c1ccccc1Oc1nc(Nc2cc(OC)c(OC)c(OC)c2)ncc1Br` [SBI-0206965] has a remaining activity at 1.25 µM ([1]; Well no.=7028) of 105% and a remaining activity at 3.75 µM ([2]; Well no.=7028) of 103%.

`O=C(c1ccccc1)c1ccc2nc(NC(=O)c3csc(C4CCN(c5ncnc6ccsc56)CC4)n3)[nH]c2c1` [SC75741] gave a remaining activity at 1.25 µM ([1]; Well no.=6922) of 100% and a remaining activity at 3.75 µM ([2]; Well no.=6922) of 101%.

For `CC(=O)NNC(=O)N1Cc2ccccc2Oc2ccc(Cl)cc21` [SC 19220], the remaining activity at 1.25 µM ([1]; Well no.=1408) was 101% and the remaining activity at 3.75 µM ([2]; Well no.=1408) was 100%.

Work on `NS(=O)(=O)c1ccc(-n2nc(C(F)(F)F)cc2-c2ccc(Cl)cc2)cc1` [SC-236] yielded a remaining activity at 1.25 µM ([1]; Well no.=5773) of 110% and a remaining activity at 3.75 µM ([2]; Well no.=5773) of 98%.

`Cc1nc(-c2ccccc2)c(-c2ccncc2)o1` [SC-68376] gave a remaining activity at 1.25 µM ([1]; Well no.=2650) of 96.3% and a remaining activity at 3.75 µM ([2]; Well no.=2650) of 102%.

`CN1CCc2cc(Cl)c(O)cc2[C@@H](c2ccccc2)C1` [SCH 23390 (hydrochloride)] was tested, and the remaining activity at 1.25 µM ([1]; Well no.=7813) was 109% and the remaining activity at 3.75 µM ([2]; Well no.=7813) was 102%.

Work on `Nc1nc2c(cnn2CCc2ccccc2)c2nc(-c3ccco3)nn12` [SCH 58261] yielded a remaining activity at 1.25 µM ([1]; Well no.=7907) of 95.3%, a remaining activity at 1.25 µM ([1]; Well no.=8309) of 98.9% and a remaining activity at 3.75 µM ([2]; Well no.=7907) of 99.3%. It also gave a remaining activity at 3.75 µM ([2]; Well no.=8309) of 97.1%.

In the case of `CC[C@@H](Nc1c(Nc2cccc(C(=O)N(C)C)c2O)c(=O)c1=O)c1ccc(C)o1` [SCH 527123], the remaining activity at 1.25 µM ([1]; Well no.=7087) is reported as 102% and the remaining activity at 3.75 µM ([2]; Well no.=7087) is reported as 97.3%.

In the case of `CC[C@H]1CN(c2nc(N)c(C(N)=O)nc2Cl)CCN1C1CCN(Cc2ccc(Cl)cc2)CC1` [SCH 546738], the remaining activity at 1.25 µM ([1]; Well no.=8659) is reported as 103% and the remaining activity at 3.75 µM ([2]; Well no.=8659) is reported as 106%.

`CN=c1nc(-c2ccccc2)n(-c2ccccc2)s1` [SCH-202676 hydrobromide] showed a remaining activity at 1.25 µM ([1]; Well no.=1314) of 98.7% and a remaining activity at 3.75 µM ([2]; Well no.=1314) of 97.4%.

In the case of `COc1ccc(CCCn2ncc3c2nc(N)n2nc(-c4ccco4)nc32)cc1` [SCH-442416], the remaining activity at 1.25 µM ([1]; Well no.=5870) is reported as 98.1% and the remaining activity at 3.75 µM ([2]; Well no.=5870) is reported as 97.4%.

Work on `NC(=O)c1ccc2[nH]ccc2c1` [SD169] yielded a remaining activity at 1.25 µM ([1]; Well no.=2797) of 106% and a remaining activity at 3.75 µM ([2]; Well no.=2797) of 106%.

Molecule `Fc1ccc(Cl)cc1-c1nc(Nc2ccncc2)c2nccnc2n1` [SD 208 - 2-(5-Chloro-2-fluorophenyl)-4-[(4-pyridyl)amino]pteridine] has a remaining activity at 1.25 µM ([1]; Well no.=2680) of 97.3% and a remaining activity at 3.75 µM ([2]; Well no.=2680) of 99.7%.

Work on `O=C(CO)N1CCC(c2n[nH]c(-c3ccc(Cl)cc3)c2-c2ccncn2)CC1` [SD-06] yielded a remaining activity at 1.25 µM ([1]; Well no.=2897) of 99.5% and a remaining activity at 3.75 µM ([2]; Well no.=2897) of 97%.

For `CCN(CC)CCOC(=O)c1cc(Cl)c(N)cc1OC` [SDZ-205,557 hydrochloride], the remaining activity at 1.25 µM ([1]; Well no.=1327) was 101% and the remaining activity at 3.75 µM ([2]; Well no.=1327) was 100%.

`Cc1cc(Nc2ccc(NC(=O)c3ccc(Nc4ccnc5ccccc45)cc3)cc2)nc(N)n1` [SGI-1027] was tested, and the remaining activity at 1.25 µM ([1]; Well no.=5518) was 105% and the remaining activity at 3.75 µM ([2]; Well no.=5518) was 102%.

`CN1CCC(CNc2ccc3ncc(-c4cccc(OC(F)(F)F)c4)n3n2)CC1` [SGI-1776 free base] gave a remaining activity at 1.25 µM ([1]; Well no.=4818) of 88.4% and a remaining activity at 3.75 µM ([2]; Well no.=4818) of 86.2%.

Work on `Cn1cc(-c2ccc3nnc(Sc4ccc5ncccc5c4)n3n2)cn1` [SGX-523] yielded a remaining activity at 1.25 µM ([1]; Well no.=4665) of 104% and a remaining activity at 3.75 µM ([2]; Well no.=4665) of 106%.

In the case of `Cc1ccc(O)c(N=Nc2ccccc2)n1` [SIB 1757], the remaining activity at 1.25 µM ([1]; Well no.=1371) is reported as 99.7% and the remaining activity at 3.75 µM ([2]; Well no.=1371) is reported as 102%.

Work on `Cc1cccc(/C=C/c2ccccc2)n1` [SIB 1893] yielded a remaining activity at 1.25 µM ([1]; Well no.=1419) of 96.6% and a remaining activity at 3.75 µM ([2]; Well no.=1419) of 95.7%.

With `CCOc1cc(/C=C2/C(=O)N(c3ccccc3)N=C2C)cc(Cl)c1OCC(=O)OC` [SJ-172550] the remaining activity at 1.25 µM ([1]; Well no.=6354) was 91.1% and the remaining activity at 3.75 µM ([2]; Well no.=6354) was 90.9%.

With `CN1CCc2cc(O)c(O)cc2C(c2ccccc2)C1` (stereo not drawn) [SKF 75670 hydrobromide] the remaining activity at 1.25 µM ([1]; Well no.=1360) was 103% and the remaining activity at 3.75 µM ([2]; Well no.=1360) was 105%.

Molecule `CN1CCc2c(cc(O)c(O)c2Cl)C(c2cccc(Cl)c2)C1` (stereo not drawn) [SKF 83565 hydrobromide] has a remaining activity at 1.25 µM ([1]; Well no.=1504) of 94.9% and a remaining activity at 3.75 µM ([2]; Well no.=1504) of 97.3%.

Work on `Cc1cccc(C2CN(C)CCc3c2cc(O)c(O)c3Cl)c1` (stereo not drawn) [SKF 83959 hydrobromide] yielded a remaining activity at 1.25 µM ([1]; Well no.=1264) of 106% and a remaining activity at 3.75 µM ([2]; Well no.=1264) of 108%.

`CN1CCc2cccc(Cl)c2CC1` [SKF 86466] gave a remaining activity at 1.25 µM ([1]; Well no.=1214) of 101% and a remaining activity at 3.75 µM ([2]; Well no.=1214) of 97.9%.

Molecule `CN1Cc2sccc2C(c2ccc(O)c(O)c2)C1` (stereo not drawn) [SKF 89145 hydrobromide] has a remaining activity at 1.25 µM ([1]; Well no.=1218) of 92.6% and a remaining activity at 3.75 µM ([2]; Well no.=1218) of 98.3%.

With `Oc1ccc(C2CNCc3sccc32)cc1O` (stereo not drawn) [SKF 89626] the remaining activity at 1.25 µM ([1]; Well no.=1456) was 98.5% and the remaining activity at 3.75 µM ([2]; Well no.=1456) was 99.7%.

`O=C(O)C1CCCN(CCC=C(c2ccccc2)c2ccccc2)C1` (stereo not drawn) [SKF 89976A hydrochloride] showed a remaining activity at 1.25 µM ([1]; Well no.=1323) of 99.7% and a remaining activity at 3.75 µM ([2]; Well no.=1323) of 102%.

`CN(C)CCCCSC(=N)N` [SKF 91488 dihydrochloride] gave a remaining activity at 1.25 µM ([1]; Well no.=1421) of 100% and a remaining activity at 3.75 µM ([2]; Well no.=1421) of 98.7%.

`COc1ccc(CCCOC(Cn2ccnc2)c2ccc(OC)cc2)cc1` (stereo not drawn) [SKF 96365] was tested, and the remaining activity at 1.25 µM ([1]; Well no.=1412) was 98.9% and the remaining activity at 3.75 µM ([2]; Well no.=1412) was 100%.
